Data as given in patent US20180311238A1, “Selective Agonist Of a6 Containing nAChRs” (Saniona A/S, priority 2017, published 2018).

Key:
[1] = tested on: L-dopa-induced dyskinesia; assay: L-dopa-induced dyskinesia (AIMs) in 6-OHDA lesioned rats; assay type: in vivo, rat
Description: Adult male Sprague-Dawley rats (Harlan labs), ˜3 months old and weighing 250-275 grams, were housed in groups of 2 in a temperature- and humidity-controlled colony room that was maintained on a 12 hour light/dark cycle. Food and water were available ad libitum throughout the experiment with the exception that animals were food fasted for 12 hours prior to the surgical (6-OHDA lesion) procedure.
Prior to surgery, all animals were anesthetized and placed in the prone position. The hair was clipped from the head and the surgical site aseptically washed with betadine and alcohol. The animals head was fixed during surgery by a stereotaxic device and continuously anesthetized using isoflurane (1.5-2.0%) via a nosecone attached to the stereotaxic frame. […] The animals were monitored by the surgeon for suitable hemostasis and respiration. […]
For quantification of L-DOPA-induced AIMs, rats were placed in transparent plastic cages and observed during the first minute of every 30-minute period in the 2 hours following the injection of L-DOPA. […]
Each of the four subtypes was scored on a severity scale from 0 to 4. • 0=absent • 1=present during less than half of the observation time • 2=present for more than half of the observation time • 3=present all the time but suppressible by external stimuli • 4=present all the time and not suppressible by external stimuli. […]

[2] = tested on: nicotinic receptors in the brain; assay type: in vivo, mice
Description: Accumulation of ^3H-epibatidine occurs preferentially in brain regions containing nicotinic receptors. […] The specific binding in thalamus reaches a maximum 30 min after an i.v. injection of ^3H-epibatidine and this maximum is maintained for another 30 min.
All test substances were administered as solutions or suspensions prepared in vehicle (e.g. saline, water, 5% glucose, 0.5% CMC, 0.5% HPMC or 10% HPβCD) and tested in serial 1:3 dilutions. Doses were adjusted for salt.
Groups of three female NMRI mice (25 g) were administered vehicle or test substance p.o. at a volume of 0.75 ml. Mice were injected i.v. via the tail vein with 1 μCi of ^3H-epibatidine in 0.2 ml saline 45 min before decapitation. At the time of decapitation, the thalamus and a piece of cerebellum were rapidly dissected on ice. Tissues were weighed and dissolved for 36 h with 1 ml 2% sodium-laurylsulfate. The solubilized tissue was then added 2 ml of scintillation cocktail, and the amount of radioactivity in the tissue was counted by conventional liquid scintillation counting. Groups of vehicle-treated mice served as controls. Non-specific binding was defined as the amount of binding in cerebellum in vehicle treated mice.
Specific binding was determined as the amount of binding (dpm/5 mg tissue) in thalamus minus the amount of binding in cerebellum (dpm/5 mg tissue) in vehicle mice. […]

CN1C2CCCC1CN(c1cccnc1)C2 [9-methyl-3-pyridin-3-yl-3,9-diaza-bicyclo[3.3.1]nonane]
L-dopa-induced AIMs, follow-up dose ([1]; 3.0 mg/kg): did not further decrease L-dopa-induced AIMs | L-dopa-induced AIMs ([1]; 0.1, 0.3, 1.0 mg/kg sc 30 minutes prior to L-dopa (8 mg/kg)): significant, dose-related decrease in AIMs with the 0.3 and 1.0 mg/kg doses reaching statistical significance relative to saline controls | ED50, inhibition of specific binding of 3H-epibatidine ([2]; mice pre-dosed for 45 min, p.o.): 1.3 mg/kg | maintained brain exposure (duration) ([2]; mice, 2 mg/kg p.o., time course up to 6 hours): at least 6 hours
